Results reported in patent US8715529B1, “Synthesis and applications of triazaborolopyridinium compounds and substituted triazaborolopyridinium compounds and methods of use” (Arrowhead Center, Inc., priority 2012, dated 2014).

Columns and labels:
[1] = test system: phospho-ERK; assay: Immunoblot of phospho-ERK accumulation in MCF7 cells; type: cell-based; settings: 10 nM, about 15 minutes
Protocol: FIG. 9 illustrates that E2-HPY(530) treatment leads to the accumulation of phospho-ERK in MCF7 breast cancer cells. […] After about a 15 minute treatment, protein lysates were isolated for immunoblot analysis. The upper panel of […] was probed with pERK1/2 mAb (1:600, Santa Cruz Biotechnology) overnight at about 4° C. Lower panel was obtained after stripping the membrane and probing (1:3000) with Actin mAb overnight at about 4° C. Primary antibodies were visualized with horseradish peroxidase conjugated secondary antibodies.
FIG. 9 illustrates that E2-HPY(530) treatment leads to the accumulation of phospho-ERK in MCF7 breast cancer cells. […] Primary antibody raised against P-ERK was used to visualize p-ERK levels. Actin expression determined by Actin specific mAb was used as a loading control.

[2] = test system: estrogen receptor (ER)-dependent promoter; assay: Invitrogen SelectScreen Profiling Service, ER-mediated transcription; type: cell-based; settings: read-out: ED50, ER-mediated transcription
[3] = target: T1, human kinesin Eg5 motor protein (Homo sapiens, UniProt P52732); assay: Monopolar spindle formation in HeLa cells treated with MSTLC probes (fixed, tubulin/DNA staining); type: cell-based; settings: read-out: EC50, monopolar spindles / block of bipolar spindle
T1 construct: endogenous in cells; host or cells: HeLa cells
T1 sequence (P52732 1-1056): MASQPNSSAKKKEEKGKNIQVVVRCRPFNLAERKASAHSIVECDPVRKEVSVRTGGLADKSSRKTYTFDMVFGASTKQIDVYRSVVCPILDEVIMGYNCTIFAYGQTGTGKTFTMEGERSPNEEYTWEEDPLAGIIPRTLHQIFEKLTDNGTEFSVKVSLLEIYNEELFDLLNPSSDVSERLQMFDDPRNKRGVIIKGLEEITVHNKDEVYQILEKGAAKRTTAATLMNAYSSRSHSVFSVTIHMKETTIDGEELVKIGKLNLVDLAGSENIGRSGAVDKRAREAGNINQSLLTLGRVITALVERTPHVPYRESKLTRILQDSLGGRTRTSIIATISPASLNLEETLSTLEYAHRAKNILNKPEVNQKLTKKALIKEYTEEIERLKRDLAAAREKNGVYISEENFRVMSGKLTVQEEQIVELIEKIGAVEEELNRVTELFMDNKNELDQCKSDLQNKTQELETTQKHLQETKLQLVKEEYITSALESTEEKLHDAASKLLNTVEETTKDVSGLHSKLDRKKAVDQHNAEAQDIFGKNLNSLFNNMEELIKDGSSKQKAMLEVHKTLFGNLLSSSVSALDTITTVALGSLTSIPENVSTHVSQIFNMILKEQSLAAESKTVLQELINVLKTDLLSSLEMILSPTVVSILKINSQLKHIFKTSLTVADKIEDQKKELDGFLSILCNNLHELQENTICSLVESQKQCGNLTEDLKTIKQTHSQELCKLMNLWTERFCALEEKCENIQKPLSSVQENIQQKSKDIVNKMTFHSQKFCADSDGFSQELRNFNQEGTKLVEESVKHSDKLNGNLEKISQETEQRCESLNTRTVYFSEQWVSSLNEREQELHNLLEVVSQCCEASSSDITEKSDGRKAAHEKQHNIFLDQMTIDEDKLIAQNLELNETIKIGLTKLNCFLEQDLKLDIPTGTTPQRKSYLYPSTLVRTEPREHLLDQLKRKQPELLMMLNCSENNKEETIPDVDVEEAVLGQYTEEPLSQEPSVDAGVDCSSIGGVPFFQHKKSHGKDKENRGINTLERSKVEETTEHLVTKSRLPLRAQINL
Protocol: The inhibitory activity of human kinesin Eg5 motor protein was tested using probes 3.3, 3.5 and 413. HeLa cells were treated with 10 μM of each probe, as well as the unconjugated inhibitor Methoxy-S-Trityl-L-cysteine. Then cells were incubated with anti-α tubulin 1:1000 primary antibody, AlexaFluor-546 conjugated rabbit anti-mouse secondary antibody and Hoechst 33342 for staining microtubules and DNA respectively. Cells were subsequently washed and mounted onto glass sides with 90% glycerol and imaged using a Zeiss Axiovert 200M inverted microscope outfitted with epifluorescence optics, and a Zeiss Apotome structured illumination module.

[4] = test system: HeLa cells; assay: Live imaging of HeLa cells treated with MSTLC probes; type: cell-based; settings: mitotic HeLa cells
[5] = Octanol/water partition coefficient (Log Po/w); type: physicochemical

SMILES	accumulation of phospho-ERK [1]	EC50 [2]	EC50 [3]	spindle phenotype [4]	logP [5]
C[C@]12CC[C@@H]3c4ccc(O)cc4CC[C@H]3[C@@H]1CC[C@@H]2O [E2, 17-β-estradiol]	resulted in the accumulation of phospho-ERK	0.00011 µM			
COc1ccc(C(SC[C@H](N)C(=O)NCCC#CC2=CN3C(=N[N+](=C(C)C)[B-]3(F)F)C=C2)(c2ccccc2)c2ccccc2)cc1 [3.3]			~1.13 µM	formed monopolar spindles	
F[B-]1(F)N2C=C(I)C=CC2=N[N+]1=C1c2ccccc2-c2ccccc21 [HPY(530)-Iodide, 2-(9H-fluoren-9-ylidene)-3,3-difluoro-6-iodo-2,3-dihydro-[1,2,4,3]triazaborolo[4,5-a]pyridin-2-ium-3-uide]					0.79
COc1ccc(C(SC[C@H](N)C(=O)NCCC#CC2=CN3C(=N[N+](=C(C)C)[B-]3(OC)OC)C=C2)(c2ccccc2)c2ccccc2)cc1 [3.5]			~1.03 µM	formed monopolar spindles	
